By IC50 is commonly meant the point on the concentration scale where inhibition reaches its midpoint.

p38α, sequence (Q16539 whole entry): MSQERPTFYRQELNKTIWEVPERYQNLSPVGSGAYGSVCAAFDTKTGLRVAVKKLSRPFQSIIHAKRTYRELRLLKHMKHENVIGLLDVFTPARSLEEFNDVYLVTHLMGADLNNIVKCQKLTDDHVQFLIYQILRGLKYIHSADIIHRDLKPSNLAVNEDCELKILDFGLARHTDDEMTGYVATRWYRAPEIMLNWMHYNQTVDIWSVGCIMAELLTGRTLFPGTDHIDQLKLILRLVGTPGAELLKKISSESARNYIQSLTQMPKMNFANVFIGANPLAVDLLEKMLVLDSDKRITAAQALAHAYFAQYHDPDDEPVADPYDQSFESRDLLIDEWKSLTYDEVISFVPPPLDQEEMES

The target in this assay is p38α (Homo sapiens, UniProt Q16539). Kind of assay: P38α enzyme inhibition assay (ATF-2 phosphorylation ELISA). Particulars: activated p38α, substrate ATF-2, ATP 100 μM, 60 minutes incubation, photometric readout 405 nm; read-out: Kinase assay IC50. Format: biochemical. The protocol: P38α Enzyme Inhibition Assay:
First the microtiter plates are coated using a dilution of ATF-2, substrate of p38α. Each step is followed by a threefold washing step. As the substrate doesn't cover the whole surface, blocking buffer is used to capture the free binding sites. In the meantime, the test compounds are diluted using the kinase buffer, which contains ATP [100 μM], phosphatase-inhibitors and the activated p38α.
The different dilutions of the test compounds are pipetted on the plate. ATP and the compounds compete for the enzyme's binding site. During an incubation time of 60 minutes ATF-2 is dual phosphorylated at Thr 69/71 by p38α kinase depending on its degree of inhibition. Next the first antibody is added into the wells. This antibody binds specifically at dual phosphorylated ATF-2 (Thr 69/71). Secondary antibody, that is conjugated with alkaline phosphatase, binds at the first one. Finally 4-NPP is given in the wells and after an incubation under cover of darkness it is photometrically analysed (405 nm).
Turning to `CC(Nc1cc(-c2[nH]c(SCC(O)CO)nc2-c2ccc(F)cc2)ccn1)c1ccccc1` (stereo not drawn) [Example 8a, 3-(4-(4-Fluorophenyl)-5-(2-(1-phenylethylamino)pyridin-4-yl)-1H-imidazol-2-ylthio)propane-1,2-diol], the IC50 turned out to be 0.042 µM.
The same measure for `OCC(O)CSc1nc(-c2ccc(F)cc2)c(-c2ccnc(NCc3ccccc3)c2)[nH]1` (stereo not drawn) [Example 8b, 3-(5-(2-(1-Benzylamino)pyridin-4-yl)-4-(4-fluorophenyl)-1H-imidazol-2-ylthio)propane-1,2-diol]: 0.087 µM; for `CC(C)CNc1cc(-c2[nH]c(SCC(O)CO)nc2-c2ccc(F)cc2)ccn1` (stereo not drawn) [Example 8c, 3-(4-(4-Fluorophenyl)-5-(2-(isobutylamino)pyridin-4-yl)-1H-imidazol-2-ylthio)propane-1,2-diol]: 0.013 µM.
With `CCNc1cc(-c2[nH]c(SCC(O)CO)nc2-c2ccc(F)cc2)ccn1` (stereo not drawn) [Example 8d, 3-(5-(2-(Ethylamino)pyridin-4-yl)-4-(4-fluorophenyl)-1H-imidazol-2-ylthio)propane-1,2-diol], the half-inhibitory concentration (IC50) was found to be 0.026 µM.
For `CNc1cc(-c2[nH]c(SCC(O)CO)nc2-c2ccc(F)cc2)ccn1` (stereo not drawn) [Example 8e, 3-(4-(4-Fluorophenyl)-5-(2-(methylamino)pyridin-4-yl)-1H-imidazol-2-ylthio)propane-1,2-diol], the IC50 stood at 0.1 µM.
The same measure for `CC(C)C(C)Nc1cc(-c2[nH]c(SCC(O)CO)nc2-c2ccc(F)cc2)ccn1` (stereo not drawn) [Example 8f, 3-(4-(4-Fluorophenyl)-5-(2-(3-methylbutan-2-ylamino)pyridin-4-yl)-1H-imidazol-2-ylthio)propane-1,2-diol]: 0.014 µM; for `CCC(C)Nc1cc(-c2[nH]c(SCC(O)CO)nc2-c2ccc(F)cc2)ccn1` (stereo not drawn) [Example 8g, 3-(4-(4-Fluorophenyl)-5-(2-(sec-butylamino)pyridin-4-yl)-1H-imidazol-2-ylthio)propane-1,2-diol]: 0.0051 µM; for `CC(C)Nc1cc(-c2[nH]c(SCC(O)CO)nc2-c2ccc(F)cc2)ccn1` (stereo not drawn) [Example 8h, 3-(4-(4-Fluorophenyl)-5-(2-(isopropylamino)pyridin-4-yl)-1H-imidazol-2-ylthio)propane-1,2-diol]: 0.0036 µM.
The same measure for `OCC(O)CSc1nc(-c2ccc(F)cc2)c(-c2ccnc(NC3CCOCC3)c2)[nH]1` (stereo not drawn) [Example 8i, 3-(4-(4-Fluorophenyl)-5-(2-(tetrahydro-2H-pyran-4-ylamino)pyridin-4-yl)-1H-imidazol-2-ylthio)propane-1,2-diol]: 0.0033 µM.
Turning to `CC(C)C(C)Nc1cc(-c2[nH]c(SCCO)nc2-c2ccc(F)cc2)ccn1` (stereo not drawn) [Example 8k, 2-(4-(4-Fluorophenyl)-5-(2-(3-methylbutan-2-ylamino)pyridin-4-yl)-1H-imidazol-2-ylthio)ethanol], the IC50 was determined as 0.01 µM.
The same measure for `CC(C)C(C)Nc1cc(-c2[nH]c(SC[C@H](O)CO)nc2-c2ccc(F)cc2)ccn1` (stereo partly drawn) [Example 8l, (2R)-3-(4-(4-Fluorophenyl)-5-(2-(3-methylbutan-2-ylamino)pyridin-4-yl)-1H-imidazol-2-ylthio)propane-1,2-diol]: 0.017 µM.
Consider `CC(C)C(C)Nc1cc(-c2[nH]c(SC[C@@H](O)CO)nc2-c2ccc(F)cc2)ccn1` (stereo partly drawn) [Example 8m, (2S)-3-(4-(4-Fluorophenyl)-5-(2-(3-methylbutan-2-ylamino)pyridin-4-yl)-1H-imidazol-2-ylthio)propane-1,2-diol], for which the IC50 stood at 0.0095 µM.
Then `CC(C)Nc1cc(-c2[nH]c(SC[C@H](O)CO)nc2-c2ccc(F)cc2)ccn1` [Example 8n, (2R)-3-(4-(4-Fluorophenyl)-5-(2-(isopropylamino)pyridin-4-yl)-1H-imidazol-2-ylthio)propane-1,2-diol], with 0.0055 µM; and `CC(C)Nc1cc(-c2[nH]c(SC[C@@H](O)CO)nc2-c2ccc(F)cc2)ccn1` [Example 8o, (2S)-3-(4-(4-Fluorophenyl)-5-(2-(isopropylamino)pyridin-4-yl)-1H-imidazol-2-ylthio)propane-1,2-diol], with 0.0032 µM; and `COC(=O)CSc1nc(-c2ccc(F)cc2)c(-c2ccnc(NC(C)c3ccccc3)c2)[nH]1` (stereo not drawn) [Example 8p, methyl 2-(4-(4-fluorophenyl)-5-(2-(1-phenylethylamino)pyridin-4-yl)-1H-imidazol-2-ylthio)acetate], with 0.035 µM.
For `CC(Nc1cc(-c2[nH]c(SCC(=O)O)nc2-c2ccc(F)cc2)ccn1)c1ccccc1` (stereo not drawn) [Example 8q, 2-(4-(4-fluorophenyl)-5-(2-(1-phenylethylamino)pyridin-4-yl)-1H-imidazol-2-ylthio)acetic acid], the IC50 came out at 0.036 µM.
The same measure for `CCOP(=O)(CSc1nc(-c2ccc(F)cc2)c(-c2ccnc(NC(C)c3ccccc3)c2)[nH]1)OCC` (stereo not drawn) [Example 8r, Diethyl (4-(4-fluorophenyl)-5-(2-(1-phenylethylamino)pyridin-4-yl)-1H-imidazol-2-ylthio)methylphosphonate]: 0.4 µM.
The same measure for `COC(=O)CSc1nc(-c2ccc(F)cc2)c(-c2ccnc(NC(C)C(C)C)c2)[nH]1` (stereo not drawn) [Example 8s, Methyl 2-(4-(4-fluorophenyl)-5-(2-(3-methylbutan-2-ylamino)pyridin-4-yl)-1H-imidazol-2-ylthio)acetate]: 0.02 µM; for `COC(=O)CSc1nc(-c2ccc(F)cc2)c(-c2ccnc(NC(C)C)c2)[nH]1` [Example 8t, Methyl 2-(4-(4-fluorophenyl)-5-(2-(isopropylamino)pyridin-4-yl)-1H-imidazol-2-ylthio)acetate]: 0.0036 µM; for `CC(C)Nc1cc(-c2[nH]c(SCCO)nc2-c2ccc(F)cc2)ccn1` [Example 8u, 2-(4-(4-Fluorophenyl)-5-(2-(isopropylamino)pyridin-4-yl)-1H-imidazol-2-ylthio)ethanol]: 0.003 µM.
As to `OCCSc1nc(-c2ccc(F)cc2)c(-c2ccnc(NC3CCOCC3)c2)[nH]1` [Example 8v, 2-(4-(4-Fluorophenyl)-5-(2-(tetrahydro-2H-pyran-4-ylamino)pyridin-4-yl)-1H-imidazol-2-ylthio)ethanol], the IC50 stood at 0.0023 µM.
The same measure for `OCCSc1nc(-c2ccc(F)cc2)c(-c2ccnc(N[C@H]3CC[C@H](O)CC3)c2)[nH]1` [Example 8w, (1R,4R)-4-(4-(4-(4-Fluorophenyl)-2-(2-hydroxyethylthio)-1H-imidazol-5-yl)pyridin-2-ylamino)cyclohexanol]: 0.002 µM.
Then `CC(Nc1cc(-c2[nH]c(SCCO)nc2-c2ccc(F)cc2)ccn1)c1ccccc1` (stereo not drawn) [Example 8x, 2-(4-(4-Fluorophenyl)-5-(2-(1-phenylethylamino)pyridin-4-yl)-1H-imidazol-2-ylthio)ethanol], with 0.014 µM; and `OCC(O)CSc1nc(-c2ccc(F)cc2)c(-c2ccncc2)[nH]1` (stereo not drawn) [reference compound], with 3.6 µM.

(Values after patent US8143294B2, “2-sulfanyl-substituted imidazole derivatives and their use as cytokine inhibitors” (priority 2007, dated 2012).)
